Data: PubChem BioAssay (NCI)
Several values for one entry are separate records, joined by “and”; a condition that tells them apart may be missing. Equal values may be shown once.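 Each compound was tested at five concentrations against cells in 96-well plates for 48 hours. Abbreviation: GI50, concentration required for 50% inhibition of growth. The concentration for full growth arrest is given as TGI.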

Key:
Test in all cases: NCI anticancer screen, dose series, 48 h
OVCAR-5 ovarian = test system: OVCAR-5 ovarian
HCT-15 colon = test system: HCT-15 colon
K-562 leukemia = test system: K-562 leukemia
CCRF-CEM leukemia = test system: CCRF-CEM leukemia
SW-620 colon = test system: SW-620 colon
HCC-2998 colon = test system: HCC-2998 colon
SK-MEL-28 melanoma = test system: SK-MEL-28 melanoma
UO-31 renal = test system: UO-31 renal
OVCAR-4 ovarian = test system: OVCAR-4 ovarian
COLO 205 colon = test system: COLO 205 colon

## COC1CCN(C(=O)c2cc(Cc3n[nH]c(=O)c4ccccc34)ccc2F)CC1
OVCAR-5 ovarian
  GI50: > 100 µM
  TGI: > 100 µM
HCT-15 colon
  GI50: > 100 µM
  TGI: > 100 µM
K-562 leukemia
  GI50: > 89.1 µM
  TGI: > 100 µM
CCRF-CEM leukemia
  GI50: 43.9 µM
  TGI: > 100 µM
SW-620 colon
  GI50: > 100 µM
  TGI: > 100 µM
HCC-2998 colon
  GI50: > 100 µM
  TGI: > 100 µM
SK-MEL-28 melanoma
  GI50: > 100 µM
  TGI: > 100 µM
UO-31 renal
  GI50: 84.5 µM
  TGI: > 100 µM
OVCAR-4 ovarian
  GI50: 36.7 µM
  TGI: > 100 µM
COLO 205 colon
  GI50: > 100 µM
  TGI: > 100 µM

## c1cc2[nH]ncc2cc1-c1nc2ccc3[nH]ncc3c2c2c1CCCC2
OVCAR-5 ovarian
  GI50: 3.06 µM
  TGI: 18.5 µM
HCT-15 colon
  GI50: 0.54 µM
  TGI: 11.2 µM
K-562 leukemia
  GI50: 0.468 µM
  TGI: > 44 µM
CCRF-CEM leukemia
  GI50: 0.836 µM
  TGI: > 25.3 µM
SW-620 colon
  GI50: 0.441 µM
  TGI: 11.2 µM
HCC-2998 colon
  GI50: 1.98 µM
  TGI: 9.79 µM
SK-MEL-28 melanoma
  GI50: 1.28 µM
  TGI: 5.88 µM
UO-31 renal
  GI50: 1.33 µM
  TGI: 4.54 µM
OVCAR-4 ovarian
  GI50: 1.97 µM
  TGI: 14.4 µM
COLO 205 colon
  GI50: 1.36 µM
  TGI: 8.36 µM

## CS(=O)(=O)Nc1ccc(-c2cc(-c3ccccc3)cc(C(N)=O)c2N)cc1
OVCAR-5 ovarian
  GI50: > 25 µM
  TGI: > 25 µM
HCT-15 colon
  GI50: > 22.2 µM
  TGI: > 25 µM
K-562 leukemia
  GI50: 15.8 µM
  TGI: > 25 µM
CCRF-CEM leukemia
  GI50: 17.8 µM
  TGI: > 25 µM
SW-620 colon
  GI50: > 25 µM
  TGI: > 25 µM
HCC-2998 colon
  GI50: > 25 µM
  TGI: > 25 µM
SK-MEL-28 melanoma
  GI50: > 25 µM
  TGI: > 25 µM
UO-31 renal
  GI50: 14.7 µM
  TGI: > 25 µM
OVCAR-4 ovarian
  GI50: > 21.6 µM
  TGI: > 25 µM
COLO 205 colon
  GI50: > 25 µM
  TGI: > 25 µM

## CC[P+](C)(C)c1ccccc1
OVCAR-5 ovarian
  TGI: > 100 µM
HCT-15 colon
  TGI: > 100 µM
K-562 leukemia
  TGI: > 100 µM
CCRF-CEM leukemia
  TGI: > 100 µM
SW-620 colon
  TGI: > 100 µM
HCC-2998 colon
  TGI: > 100 µM
SK-MEL-28 melanoma
  TGI: > 100 µM
UO-31 renal
  TGI: > 100 µM
OVCAR-4 ovarian
  TGI: > 100 µM
COLO 205 colon
  TGI: > 100 µM

## CC1(C)C(O)C[C@@H](O)[C@@]2(C)C1CC[C@]1(C)C2C[C@@H](O)[C@@H]2C([C@@]3(C)CC[C@@H](C(C)(C)O)O3)CCC21C (stereo not given in full)
OVCAR-5 ovarian
  TGI: 30.7 µM
HCT-15 colon
  TGI: 25.1 µM
K-562 leukemia
  TGI: > 100 µM
CCRF-CEM leukemia
  TGI: > 66.1 µM
SW-620 colon
  TGI: 30.5 µM
HCC-2998 colon
  TGI: 31.4 µM
SK-MEL-28 melanoma
  TGI: 27.1 µM
UO-31 renal
  TGI: 32.8 µM
OVCAR-4 ovarian
  TGI: 37.9 µM
COLO 205 colon
  TGI: 30 µM

## C=CC(=O)NCc1cccc(Nc2ncc(Br)c(NCCCNC(=O)C3CCC3)n2)c1
OVCAR-5 ovarian
  GI50: 0.709 µM and 2.56 µM
  TGI: 12.5 µM and 15.6 µM
HCT-15 colon
  GI50: 2.27 µM and 2.65 µM
  TGI: 12.5 µM and 13.2 µM
K-562 leukemia
  GI50: 2.99 µM and 0.937 µM
  TGI: 12.5 µM and > 25 µM
CCRF-CEM leukemia
  GI50: 0.707 µM and 0.454 µM
  TGI: 12.5 µM and > 25 µM
SW-620 colon
  GI50: 0.661 µM and 1.15 µM
  TGI: 12.5 µM and 11.7 µM
HCC-2998 colon
  GI50: 1.83 µM and 3.03 µM
  TGI: 5.27 µM and 10.1 µM
SK-MEL-28 melanoma
  GI50: 2.44 µM and 2.26 µM
  TGI: 9.94 µM and 9.29 µM
UO-31 renal
  GI50: 0.256 µM and 0.26 µM
  TGI: 1.11 µM and 0.916 µM
OVCAR-4 ovarian
  GI50: 1.67 µM and 1.2 µM
  TGI: 6.07 µM and 12.8 µM
COLO 205 colon
  GI50: 0.403 µM
  TGI: 2.01 µM

## CNCc1cc(OC)ccc1-c1ccc(OC)c(OC)c1OC
OVCAR-5 ovarian
  TGI: > 100 µM
HCT-15 colon
  TGI: > 100 µM
K-562 leukemia
  TGI: > 100 µM
CCRF-CEM leukemia
  TGI: > 100 µM
SW-620 colon
  TGI: > 100 µM
HCC-2998 colon
  TGI: > 100 µM
SK-MEL-28 melanoma
  TGI: > 100 µM
UO-31 renal
  TGI: > 100 µM
OVCAR-4 ovarian
  TGI: > 100 µM
COLO 205 colon
  TGI: > 100 µM

## O=[N+]([O-])c1ccccc1N/N=C\c1c[nH]c2ccccc12
OVCAR-5 ovarian
  GI50: > 58.2 µM
  TGI: > 100 µM
HCT-15 colon
  GI50: 5.68 µM
  TGI: > 100 µM
K-562 leukemia
  GI50: 4.53 µM
  TGI: > 100 µM
CCRF-CEM leukemia
  GI50: 5.1 µM
  TGI: > 100 µM
SW-620 colon
  GI50: 17.8 µM
  TGI: > 100 µM
HCC-2998 colon
  GI50: 10.9 µM
  TGI: > 100 µM
SK-MEL-28 melanoma
  GI50: > 100 µM
  TGI: > 100 µM
UO-31 renal
  GI50: 0.658 µM
  TGI: > 65.9 µM
OVCAR-4 ovarian
  GI50: 17.8 µM
  TGI: > 100 µM
COLO 205 colon
  GI50: 24.5 µM
  TGI: > 100 µM

## COc1cc(OC)c(/C=C\c2ccnc3ccccc23)c(OC)c1
OVCAR-5 ovarian
  TGI: 19.3 µM
HCT-15 colon
  TGI: 18.5 µM
K-562 leukemia
  TGI: 2.24 µM
CCRF-CEM leukemia
  TGI: 5.75 µM
SW-620 colon
  TGI: 20.8 µM
HCC-2998 colon
  TGI: 23.9 µM
SK-MEL-28 melanoma
  TGI: 17.9 µM
UO-31 renal
  TGI: 3.55 µM
OVCAR-4 ovarian
  TGI: 16.5 µM
COLO 205 colon
  TGI: 8.2 µM

## Clc1ccc2c(c1)N(CCCN1CCCC1)c1ccccc1S2
OVCAR-5 ovarian
  GI50: 12.7 µM
  TGI: 28.3 µM
HCT-15 colon
  GI50: 3.72 µM
  TGI: 13.5 µM
K-562 leukemia
  GI50: 2.77 µM
  TGI: 7.61 µM
CCRF-CEM leukemia
  GI50: 3.93 µM
  TGI: 14.2 µM
SW-620 colon
  GI50: 10.7 µM
  TGI: 25.8 µM
HCC-2998 colon
  GI50: 4.41 µM
  TGI: 15.5 µM
SK-MEL-28 melanoma
  GI50: 6.6 µM
  TGI: 21.4 µM
UO-31 renal
  GI50: 6.61 µM
  TGI: 20.7 µM
OVCAR-4 ovarian
  GI50: 7.82 µM
  TGI: 21.2 µM
COLO 205 colon
  GI50: 2.5 µM
  TGI: 7.34 µM

## C=CC(C1=CC(=O)C(OC)=CC1=O)c1ccccc1 (stereo not given)
OVCAR-5 ovarian
  TGI: 39 µM
HCT-15 colon
  TGI: 32 µM
K-562 leukemia
  TGI: 13.2 µM
CCRF-CEM leukemia
  TGI: 6.77 µM
SW-620 colon
  TGI: 48.6 µM
HCC-2998 colon
  TGI: 30.7 µM
SK-MEL-28 melanoma
  TGI: 29.1 µM
UO-31 renal
  TGI: 29.6 µM
OVCAR-4 ovarian
  TGI: 30.1 µM
COLO 205 colon
  TGI: 36.6 µM

## CC(=O)c1cc(C(=O)c2ccc3c(c2)Sc2ccccc2N3)c2c(C)cc(C)cn12
OVCAR-5 ovarian
  GI50: 0.794 µM
  TGI: > 100 µM
HCT-15 colon
  GI50: 0.344 µM
  TGI: > 100 µM
K-562 leukemia
  GI50: 0.222 µM
  TGI: > 100 µM
CCRF-CEM leukemia
  GI50: 0.277 µM
  TGI: > 100 µM
SW-620 colon
  GI50: 0.372 µM
  TGI: > 100 µM
HCC-2998 colon
  GI50: 0.494 µM
  TGI: > 100 µM
SK-MEL-28 melanoma
  GI50: 3.64 µM
  TGI: > 100 µM
UO-31 renal
  GI50: 0.635 µM
  TGI: > 100 µM
OVCAR-4 ovarian
  GI50: 2.2 µM
  TGI: > 100 µM
COLO 205 colon
  GI50: 0.222 µM
  TGI: 0.535 µM

## CC1CC(=O)Nc2ccccc2N1C(=O)CN1CCC(CCCCN(C)C)CC1 (stereo not given)
OVCAR-5 ovarian
  TGI: > 100 µM
HCT-15 colon
  TGI: > 100 µM
K-562 leukemia
  TGI: > 100 µM
CCRF-CEM leukemia
  TGI: > 100 µM
SW-620 colon
  TGI: > 100 µM
HCC-2998 colon
  TGI: > 100 µM
SK-MEL-28 melanoma
  TGI: > 100 µM
UO-31 renal
  TGI: > 100 µM
OVCAR-4 ovarian
  TGI: > 100 µM
COLO 205 colon
  TGI: > 100 µM

## O=C1CCC2CC(C(=O)c3ccccc3)CCC2CN1 (stereo not given) (tested in a mixture with another compound)
OVCAR-5 ovarian
  TGI: > 100 µM
HCT-15 colon
  TGI: > 100 µM
K-562 leukemia
  TGI: > 100 µM
CCRF-CEM leukemia
  TGI: > 100 µM
SW-620 colon
  TGI: > 100 µM
HCC-2998 colon
  TGI: > 100 µM
SK-MEL-28 melanoma
  TGI: > 100 µM
UO-31 renal
  TGI: > 100 µM
OVCAR-4 ovarian
  TGI: > 100 µM
COLO 205 colon
  TGI: > 100 µM

## CC1=CC(=C(c2ccc(N)cc2)c2ccc(N)cc2)C=CC1=N
OVCAR-5 ovarian
  GI50: 3.42 µM
  TGI: 14.4 µM and > 71.9 µM and > 100 µM
HCT-15 colon
  GI50: 4.61 µM and 14.5 µM
  TGI: 45.1 µM and > 74.7 µM and > 100 µM
K-562 leukemia
  GI50: 0.369 µM
CCRF-CEM leukemia
  GI50: 0.626 µM
  TGI: 8.16 µM and 31.3 µM
SW-620 colon
  GI50: 0.668 µM and 3.25 µM
  TGI: 11.8 µM and 38.8 µM and 16 µM
HCC-2998 colon
  TGI: 2.21 µM and 16 µM and 18.9 µM
SK-MEL-28 melanoma
  GI50: 0.789 µM and 4.57 µM
  TGI: 7.89 µM and 36.8 µM and 19.6 µM
UO-31 renal
  GI50: 9.52 µM and 14.9 µM
  TGI: 55.6 µM and 50.5 µM and 41.3 µM
OVCAR-4 ovarian
  GI50: 2.51 µM and 5.01 µM
  TGI: 14.3 µM and > 55.2 µM and 71.6 µM
COLO 205 colon
  GI50: 0.373 µM and 1.77 µM
  TGI: 1.6 µM and 4.86 µM and 3.38 µM

## CCOC(=O)CSC(=O)NCCCl
OVCAR-5 ovarian
  TGI: > 100 µM
HCT-15 colon
  TGI: > 100 µM
K-562 leukemia
  GI50: 29 µM
  TGI: > 100 µM
CCRF-CEM leukemia
  GI50: 7.22 µM
  TGI: > 100 µM
SW-620 colon
  TGI: > 100 µM
HCC-2998 colon
  TGI: > 100 µM
SK-MEL-28 melanoma
  TGI: > 100 µM
UO-31 renal
  TGI: > 100 µM
OVCAR-4 ovarian
  TGI: > 100 µM
COLO 205 colon
  TGI: > 100 µM
